Holding throughout (format): biochemical
The target of one experiment is Recombinant human c-Src (Homo sapiens (Human), UniProt P12931). Nature of the experiment: Src kinase inhibition in vitro (luciferase-based residual ATP, KinaseGlo). Conditions: ATP 3 μM, PTK2 substrate, 90 minutes at room temperature. As for the experimental part:
(§1) The ability of compounds of the present invention to inhibit the activity of three groups of kinases was tested. Kinases tested included the src family (primarily src and yes), some angiogenic growth factor receptors (Fgfr1, Vegfr, and Pdgfrβ) and the ephrin, EphB4. All kinase reactions were conducted in 96-well plates with a final reaction volume of 50 ul.
(§2) After reacting for about 90 minutes at room temperature, residual ATP was determined using a luciferase-based assay (KinaseGlo, Promega Corp.) as a measure of kinase activity. Data from four wells were then averaged and used to determine IC50 values for the test compounds (Prism software package, GraphPad Software, San Diego Calif.).
(§3) The test results for inhibition of Src kinase are presented in Table 1, and the test results for inhibition of some other kinases (i.e., Yes, EphB4, and Pdgfrβ) are presented in Table 2.
For orientation: In Kinase-Glo more light means more ATP remaining.

Another experiment concerns the target Pdgfrβ (Homo sapiens (Human), UniProt P09619). Nature of the experiment: Pdgfrβ kinase inhibition in vitro (luciferase-based residual ATP). Particulars: 500 nM ATP, PTK2 peptide, 60 minutes at 37 C; read-out: PDGFR IC50. As to the method: as §1
Pdgfrβ (0.16 ug/well, Panvera/Invitrogen) 500 nM ATP and the PTK2 peptide (700 uM) were combined with compound and reaction buffer as noted above for src. The reaction was incubated for 60 minutes at 37 C, and the residual ATP concentration was determined using the luciferase-based technique also noted above.
as §3

The next experiment has as its target Recombinant human Yes (Homo sapiens (Human), UniProt P07947). Description: Yes kinase inhibition in vitro (luciferase-based residual ATP, KinaseGlo). Particulars: ATP 3 μM, PTK2 substrate, 90 minutes at room temperature. As to the method: as §1, §2, §3
Another experiment addresses EphB4 (Homo sapiens (Human), UniProt P54760). Description: EphB4 kinase inhibition in vitro (luciferase-based residual ATP). Particulars: 6 uM ATP, poly(glu4tyr), 60 minutes at 37 C. As to the method: as §1, §3

Chain of Recombinant human c-Src (P12931 whole entry, looked up): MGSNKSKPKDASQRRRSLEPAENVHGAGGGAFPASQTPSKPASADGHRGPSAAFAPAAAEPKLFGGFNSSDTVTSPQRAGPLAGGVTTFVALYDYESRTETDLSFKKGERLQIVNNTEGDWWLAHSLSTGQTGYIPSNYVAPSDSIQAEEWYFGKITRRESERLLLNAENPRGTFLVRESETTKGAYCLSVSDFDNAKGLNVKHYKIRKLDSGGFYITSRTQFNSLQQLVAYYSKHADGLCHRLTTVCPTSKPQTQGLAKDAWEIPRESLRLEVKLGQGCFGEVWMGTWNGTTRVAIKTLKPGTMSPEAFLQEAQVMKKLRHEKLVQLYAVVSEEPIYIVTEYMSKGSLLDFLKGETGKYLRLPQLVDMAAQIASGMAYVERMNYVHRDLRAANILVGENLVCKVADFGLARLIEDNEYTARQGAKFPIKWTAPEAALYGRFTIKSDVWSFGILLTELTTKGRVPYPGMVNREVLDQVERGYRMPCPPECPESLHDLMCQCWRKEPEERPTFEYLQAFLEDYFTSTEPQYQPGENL
Chain of Pdgfrβ (P09619 33-1106): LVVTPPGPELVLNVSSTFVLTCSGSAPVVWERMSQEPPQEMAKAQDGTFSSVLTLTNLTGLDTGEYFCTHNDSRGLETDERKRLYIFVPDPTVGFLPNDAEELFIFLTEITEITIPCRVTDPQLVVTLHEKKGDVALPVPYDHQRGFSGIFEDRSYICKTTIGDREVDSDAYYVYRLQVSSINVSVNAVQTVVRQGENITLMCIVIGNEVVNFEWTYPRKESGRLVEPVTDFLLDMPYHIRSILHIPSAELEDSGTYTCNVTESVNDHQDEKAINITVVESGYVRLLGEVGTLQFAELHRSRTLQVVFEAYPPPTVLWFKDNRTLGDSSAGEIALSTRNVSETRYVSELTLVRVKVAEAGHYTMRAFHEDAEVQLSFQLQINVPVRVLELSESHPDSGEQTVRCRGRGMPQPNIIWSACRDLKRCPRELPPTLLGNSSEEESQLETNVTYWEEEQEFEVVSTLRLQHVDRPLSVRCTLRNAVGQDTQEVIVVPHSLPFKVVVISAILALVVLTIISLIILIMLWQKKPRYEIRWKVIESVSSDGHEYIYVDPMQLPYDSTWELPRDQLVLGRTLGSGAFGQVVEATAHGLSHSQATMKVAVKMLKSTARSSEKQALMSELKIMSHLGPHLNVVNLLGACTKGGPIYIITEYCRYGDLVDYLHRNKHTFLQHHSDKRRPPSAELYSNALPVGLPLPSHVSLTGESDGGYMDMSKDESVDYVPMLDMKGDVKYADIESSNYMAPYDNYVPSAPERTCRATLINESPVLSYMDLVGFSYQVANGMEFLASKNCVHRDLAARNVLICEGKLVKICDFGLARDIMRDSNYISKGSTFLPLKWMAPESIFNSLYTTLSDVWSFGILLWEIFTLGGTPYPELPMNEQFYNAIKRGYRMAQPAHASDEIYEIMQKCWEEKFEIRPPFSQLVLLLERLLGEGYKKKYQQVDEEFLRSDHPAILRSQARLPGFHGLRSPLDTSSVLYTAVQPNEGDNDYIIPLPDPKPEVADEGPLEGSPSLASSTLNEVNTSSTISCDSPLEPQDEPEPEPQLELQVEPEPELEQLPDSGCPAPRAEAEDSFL
Chain of Recombinant human Yes (P07947 whole entry): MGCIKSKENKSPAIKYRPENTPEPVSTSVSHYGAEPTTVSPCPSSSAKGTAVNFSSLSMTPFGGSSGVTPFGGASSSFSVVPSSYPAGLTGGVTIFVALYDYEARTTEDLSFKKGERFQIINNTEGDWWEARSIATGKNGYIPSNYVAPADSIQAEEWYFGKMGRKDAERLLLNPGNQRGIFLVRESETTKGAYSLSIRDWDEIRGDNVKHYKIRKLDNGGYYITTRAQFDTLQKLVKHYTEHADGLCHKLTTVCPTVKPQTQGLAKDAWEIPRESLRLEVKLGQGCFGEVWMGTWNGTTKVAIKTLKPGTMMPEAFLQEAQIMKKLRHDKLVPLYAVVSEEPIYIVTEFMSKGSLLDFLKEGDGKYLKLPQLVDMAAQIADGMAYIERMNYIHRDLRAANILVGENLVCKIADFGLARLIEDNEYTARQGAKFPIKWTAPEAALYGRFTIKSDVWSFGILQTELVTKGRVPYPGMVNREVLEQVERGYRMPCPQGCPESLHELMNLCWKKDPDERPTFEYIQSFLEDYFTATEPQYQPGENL
Chain of EphB4 (P54760 16-987): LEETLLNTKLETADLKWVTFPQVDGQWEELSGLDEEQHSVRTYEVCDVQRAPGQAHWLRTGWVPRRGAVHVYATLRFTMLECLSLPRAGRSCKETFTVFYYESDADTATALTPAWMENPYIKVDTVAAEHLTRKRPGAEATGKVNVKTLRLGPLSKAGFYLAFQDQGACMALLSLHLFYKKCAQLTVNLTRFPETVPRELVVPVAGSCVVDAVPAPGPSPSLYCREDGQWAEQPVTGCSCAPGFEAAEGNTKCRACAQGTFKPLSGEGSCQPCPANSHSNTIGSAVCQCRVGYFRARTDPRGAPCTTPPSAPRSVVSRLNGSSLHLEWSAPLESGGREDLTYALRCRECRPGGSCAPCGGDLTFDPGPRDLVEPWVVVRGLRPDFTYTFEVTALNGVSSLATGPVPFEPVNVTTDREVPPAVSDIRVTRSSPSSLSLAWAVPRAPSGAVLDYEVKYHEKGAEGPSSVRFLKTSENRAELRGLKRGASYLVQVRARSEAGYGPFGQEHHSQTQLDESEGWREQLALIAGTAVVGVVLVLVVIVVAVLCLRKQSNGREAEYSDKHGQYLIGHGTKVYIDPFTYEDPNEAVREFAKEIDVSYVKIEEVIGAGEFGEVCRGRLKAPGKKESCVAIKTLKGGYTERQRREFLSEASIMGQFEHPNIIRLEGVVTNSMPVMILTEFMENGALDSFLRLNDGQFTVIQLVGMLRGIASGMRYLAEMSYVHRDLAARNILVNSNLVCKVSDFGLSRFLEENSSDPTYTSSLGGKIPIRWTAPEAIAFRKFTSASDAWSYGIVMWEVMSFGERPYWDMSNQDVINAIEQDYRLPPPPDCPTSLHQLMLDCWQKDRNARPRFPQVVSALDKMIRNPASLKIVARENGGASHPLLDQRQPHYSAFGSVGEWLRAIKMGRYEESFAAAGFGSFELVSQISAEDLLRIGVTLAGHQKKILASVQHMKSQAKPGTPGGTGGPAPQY

For the molecule `Cc1cccc(C)c1-c1cc(C)c2nc(Nc3cccc(OCCN4CCN(C)CC4)c3)nnc2c1` [[7-(2,6-dimethyl-phenyl)-5-methyl-benzo[1,2,4]triazin-3-yl]-{3-[2-(4-methyl-piperazin-1-yl)-ethoxy]-phenyl}-amine], the IC50 (in general, the concentration needed to halve the response being measured) at Recombinant human c-Src was 39.5 nM; at Pdgfrβ, 69.1 nM.

With `Cc1cccc(C)c1-c1cc(NS(C)(=O)=O)c2nc(Nc3ccc(OCCN4CCCC4)cc3)nnc2c1` [N-{7-(2,6-dimethyl-phenyl)-3-[4-(2-pyrrolidin-1-yl-ethoxy)-phenylamino]-benzo[1,2,4]triazin-5-yl}-methanesulfonamide], the IC50 at Recombinant human c-Src is 20.4 nM; on Pdgfrβ, 15.7 nM.

`Cc1cc(F)ccc1-c1cc2nnc(Nc3ccc(S(=O)(=O)NCCN4CCCC4)cc3)nc2cc1C` [4-[7-(4-fluoro-2-methyl-phenyl)-6-methyl-benzo[1,2,4]triazin-3-ylamino]-N-(2-pyrrolidin-1-yl-ethyl)-benzenesulfonamide]: the IC50 worked out at 20.4 nM on Recombinant human c-Src and 73.7 nM at Pdgfrβ.

With `Cc1cc2nc(Nc3ccc(C(=O)N4CCN(C)CC4)cc3)nnc2cc1-c1cc(O)ccc1Cl` [{4-[7-(2-chloro-5-hydroxy-phenyl)-6-methyl-benzo[1,2,4]triazin-3-ylamino]-phenyl}-(4-methyl-piperazin-1-yl)-methanone], the half-inhibitory concentration (IC50) on Pdgfrβ worked out at 3.7 nM.

Consider `Cc1cc2nc(Nc3ccc(OCCN4CCCC4)cc3)nnc2cc1-c1cccc(O)c1` [3-{6-methyl-3-[4-(2-pyrrolidin-1-yl-ethoxy)-phenylamino]-benzo[1,2,4]triazin-7-yl}-phenol], for which the IC50 on Pdgfrβ was determined as 7.4 nM.

For the molecule `CC(=O)Nc1cc(-c2c(C)cccc2C)cc2nnc(Nc3ccc(OCCN4CCCC4)cc3)nc12` [N-{7-(2,6-dimethyl-phenyl)-3-[4-(2-pyrrolidin-1-yl-ethoxy)-phenylamino]-benzo[1,2,4]triazin-5-yl}-acetamide], the values for the IC50 at Recombinant human c-Src and at Pdgfrβ were 6.8 nM and 11.5 nM, respectively.

Turning to `Cc1cc2nc(Nc3ccc(S(=O)(=O)NCCN4CCCC4)cc3)nnc2cc1-c1c(C)cccc1C` [4-[7-(2,6-dimethyl-phenyl)-6-methyl-benzo[1,2,4]triazin-3-ylamino]-N-(2-pyrrolidin-1-yl-ethyl)-benzenesulfonamide], the half-maximal inhibitory concentration (IC50) on Recombinant human c-Src is 10.5 nM; on Pdgfrβ, 48.1 nM.

For `COc1ccc(Cl)c(-c2cc3nnc(Nc4ccc(C(=O)N5CCN(C)CC5)cc4)nc3cc2C)c1` [{4-[7-(2-chloro-5-methoxy-phenyl)-6-methyl-benzo[1,2,4]triazin-3-ylamino]-phenyl}-(4-methyl-piperazin-1-yl)-methanone], the IC50 on Pdgfrβ was determined as 3.5 nM.

On to `Cc1cc(-c2c(Cl)cccc2Cl)cc2nnc(Nc3ccc(OCCN4CCCC4)cc3)nc12` [[7-(2,6-dichloro-phenyl)-5-methyl-benzo[1,2,4]triazin-3-yl]-[4-(2-pyrrolidin-1-yl-ethoxy)-phenyl]-amine], for which the IC50 on Pdgfrβ was 15 nM.

In the case of `Cc1cccc(C)c1-c1cc(C)c2nc(Nc3ccc(OCCCN4CCN(C)CC4)cc3)nnc2c1` [[7-(2,6-dimethyl-phenyl)-5-methyl-benzo[1,2,4]triazin-3-yl]-{4-[3-(4-methyl-piperazin-1-yl)-propoxy]-phenyl}-amine], at Pdgfrβ, the IC50 was 50.3 nM.

`Cc1cccc(C)c1-c1cc(C)c2nc(Nc3cccc(S(=O)(=O)N4CCN(C)CC4)c3)nnc2c1` [[7-(2,6-dimethyl-phenyl)-5-methyl-benzo[1,2,4]triazin-3-yl]-[3-(4-methyl-piperazine-1-sulfonyl)-phenyl]-amine]: the values for the IC50 at Recombinant human c-Src and at Pdgfrβ were 322 nM and 81.3 nM, respectively.

On to `Cc1cc(-c2cc(O)ccc2Cl)cc2nnc(Nc3ccc(OCCN4CCCC4)cc3)nc12` [[7-(2-chloro-5-hydroxy-phenyl)-5-methyl-benzo[1,2,4]triazin-3-yl]-[4-(2-pyrrolidine-1-yl-ethoxy)-phenyl]-amine], for which the IC50 at Recombinant human c-Src was determined as 1.6 nM; on Recombinant human Yes it was 0.5 nM; at Pdgfrβ it was 1.1 nM; against EphB4 it was 15.9 nM.

For the molecule `Cc1cccc(C)c1-c1cc(C)c2nc(Nc3cccc(OCCCN4CCN(C)CC4)c3)nnc2c1` [[7-(2,6-dimethyl-phenyl)-5-methyl-benzo[1,2,4]triazin-3-yl]-{3-[3-(4-methyl-piperazin-1-yl)-propoxy]-phenyl}-amine], the IC50 at Pdgfrβ stood at 76.3 nM.

Consider `Cc1ccccc1-c1cc2nnc(Nc3ccc(S(=O)(=O)NCCN4CCCC4)cc3)nc2cc1C` [4-(6-methyl-7-o-tolyl-benzo[1,2,4]triazin-3-ylamino)-N-(2-pyrrolidin-1-yl-ethyl)-benzenesulfonamide], for which the figures for the IC50 on Recombinant human c-Src and at Pdgfrβ were 10.2 nM and 24.3 nM, respectively.

For the molecule `Cc1cc(-c2cc(O)ccc2Cl)cc2nnc(Nc3cccc(C(=O)NCCN(C)C)c3)nc12` [3-[7-(2-chloro-5-hydroxy-phenyl)-5-methyl-benzo[1,2,4]triazin-3-ylamino]-N-(2-dimethylamino-ethyl)-benzamide], the IC50 at Pdgfrβ was found to be 5.3 nM.

On to `Cc1cccc(C)c1-c1cc(C)c2nc(Nc3cccc(S(N)(=O)=O)c3)nnc2c1` [3-[7-(2,6-dimethyl-phenyl)-5-methyl-benzo[1,2,4]triazin-3-ylamino]-benzenesulfonamide], for which, on Pdgfrβ, the IC50 was 16.3 nM.

Source of the values: US8481536B2, “Benzotriazine inhibitors of kinases” (TargeGen, Inc., priority 2004, dated 2013).
